Values of other authors, collected in US20030152525A1, “Stable oral compositions comprising casein phosphopeptide complexes and fluoride” (The Procter & Gamble Company, priority 2002, published 2003).

Details: solutions containing 0.1% w/v peptide, various pH, calcium and phosphate concentrations, constant ionic strength; as discussed in WO 98/40406

Substance: Gln^59-Met-Glu-Ala-Glu-Ser(P)-Ile-Ser(P)-Ser(P)-Ser(P)-Glu-Glu-Ile-Val-Pro-Asn-Ser(P)-Val-Glu-Gln-Lys^79 [αs1 (59-79) [1]]
- calcium maximally bound per molecule of peptide: 24 per molecule
- phosphate maximally bound per molecule of peptide: 16 per molecule
